From paper PMC12621045, “Development of Purine and Pyrrolopyrimidine Scaffolds as Potent, Selective, and Brain Penetrant NUAK1 Inhibitors” (ACS Medicinal Chemistry Letters, 2025)

Experiments:
MKK6 = MKK6 (Homo sapiens, UniProt P52564); assay: 33P-ATP radiometric filter binding kinase panel; settings: read-out: % activity remaining
TLK1 = TLK1 (Homo sapiens, UniProt Q9UKI8); assay: 33P-ATP radiometric filter binding kinase panel; settings: read-out: % activity remaining
Excerpt: (§1) targets in radiometric filter binding assay using 33P-ATP at the MRC PPU International Centre for

PRK2 = PRK2 (Homo sapiens, UniProt Q16513); assay: 33P-ATP radiometric filter binding kinase panel; settings: read-out: % activity remaining
PIM2 = PIM2 (Homo sapiens, UniProt Q9P1W9); assay: 33P-ATP radiometric filter binding kinase panel; settings: read-out: % activity remaining
Excerpt: as §1

CAMKKb = CAMKKb (Homo sapiens, UniProt Q96RR4); assay: 33P-ATP radiometric filter binding kinase panel; settings: read-out: % activity remaining
MNK2 = MNK2 (Homo sapiens, UniProt Q9HBH9); assay: 33P-ATP radiometric filter binding kinase panel; settings: read-out: % activity remaining
TESK1 = TESK1 (Homo sapiens, UniProt Q15569); assay: 33P-ATP radiometric filter binding kinase panel; settings: read-out: % activity remaining
Excerpt: as §1

HIPK2 = HIPK2 (Homo sapiens, UniProt Q9H2X6); assay: 33P-ATP radiometric filter binding kinase panel; settings: read-out: % activity remaining
Excerpt: as §1

DYRK1A = DYRK1A (Homo sapiens, UniProt Q13627); assay: 33P-ATP radiometric filter binding kinase panel; settings: read-out: % activity remaining
Excerpt: as §1

MST2 = MST2 (Homo sapiens, UniProt Q13188); assay: 33P-ATP radiometric filter binding kinase panel; settings: read-out: % activity remaining
Excerpt: as §1
Kinase activity s.d. pIC50 activity s.d. pIC50

CK2 = CK2 (Homo sapiens, UniProt P68400); assay: 33P-ATP radiometric filter binding kinase panel; settings: read-out: % activity remaining
Excerpt: as §1

ROCK 2 = ROCK 2 (Homo sapiens, UniProt O75116); assay: 33P-ATP radiometric filter binding kinase panel; settings: read-out: % activity remaining
MARK4 = molecular target: T1, MARK4 (Homo sapiens, UniProt Q96L34); assay: 33P-ATP radiometric filter binding kinase panel; settings: read-out: % activity remaining
T1 sequence (Q96L34 1-752): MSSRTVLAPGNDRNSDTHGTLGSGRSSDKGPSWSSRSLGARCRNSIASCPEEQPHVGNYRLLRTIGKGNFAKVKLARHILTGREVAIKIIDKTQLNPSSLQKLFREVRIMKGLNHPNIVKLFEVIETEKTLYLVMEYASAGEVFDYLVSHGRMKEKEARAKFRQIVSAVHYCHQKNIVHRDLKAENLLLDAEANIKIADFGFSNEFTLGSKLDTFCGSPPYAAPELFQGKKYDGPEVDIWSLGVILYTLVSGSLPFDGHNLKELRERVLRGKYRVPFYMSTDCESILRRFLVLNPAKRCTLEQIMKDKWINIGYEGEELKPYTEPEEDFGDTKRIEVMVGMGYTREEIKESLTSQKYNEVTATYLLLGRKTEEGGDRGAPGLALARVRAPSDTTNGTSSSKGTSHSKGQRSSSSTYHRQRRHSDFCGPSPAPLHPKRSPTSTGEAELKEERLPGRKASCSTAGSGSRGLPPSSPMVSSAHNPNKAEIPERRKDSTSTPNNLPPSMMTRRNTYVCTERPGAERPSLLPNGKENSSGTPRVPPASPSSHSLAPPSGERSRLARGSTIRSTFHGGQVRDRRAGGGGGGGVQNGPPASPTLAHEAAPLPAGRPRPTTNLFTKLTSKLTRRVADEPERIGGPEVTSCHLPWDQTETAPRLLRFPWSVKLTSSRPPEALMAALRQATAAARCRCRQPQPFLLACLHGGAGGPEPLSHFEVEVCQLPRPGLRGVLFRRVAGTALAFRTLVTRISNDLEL
Excerpt: as §1

MLK3 = MLK3 (Homo sapiens, UniProt Q16584); assay: 33P-ATP radiometric filter binding kinase panel; settings: read-out: % activity remaining
SYK = SYK (Homo sapiens, UniProt P43405); assay: 33P-ATP radiometric filter binding kinase panel; settings: read-out: % activity remaining
HIPK1 = HIPK1 (Homo sapiens, UniProt Q86Z02); assay: 33P-ATP radiometric filter binding kinase panel; settings: read-out: % activity remaining
Excerpt: as §1

SIK3 = SIK3 (Homo sapiens, UniProt Q9Y2K2); assay: 33P-ATP radiometric filter binding kinase panel; settings: read-out: % activity remaining
Excerpt: as §1

TBK1 = TBK1 (Homo sapiens, UniProt Q9UHD2); assay: 33P-ATP radiometric filter binding kinase panel; settings: read-out: % activity remaining
Excerpt: as §1

p38g MAPK = p38g MAPK (Homo sapiens, UniProt P53778); assay: 33P-ATP radiometric filter binding kinase panel; settings: read-out: % activity remaining
Excerpt: as §1

ERK8 = ERK8 (Homo sapiens, UniProt Q8TD08); assay: 33P-ATP radiometric filter binding kinase panel; settings: read-out: % activity remaining
Excerpt: as §1

CDK4/cyclin D1 = CDK4/cyclin D1 (Homo sapiens, UniProt P11802); assay: Adapta screening assay (Thermo Fisher); settings: read-out: CDK4/D1 % inhibition at 1 μM
Description: CDK2/cyclin A: Z′-LYTE™ screening assay performed by Thermo Fisher Scientific: The 2X CDK2/cyclin A / Ser/Thr 12 mixture is prepared in 50 mM HEPES pH 7.5, 0.01% BRIJ-35, 10 mM
2 µM Ser/Thr 12 in 50 mM HEPES pH 7.5, 0.01% BRIJ-35, 10 mM MgCl2, 1 mM EGTA. After the 1
CDK4/cyclin D1: Adapta™ screening assay was performed by Thermo Fisher Scientific. The 2X CDK4/cyclin D1 / Rb Substrate mixture is prepared in 50 mM HEPES pH 7.5, 0.01% BRIJ-35, 10 mM MnCl2, 1 mM EGTA, 2 mM DTT, 0.02% NaN3. The final 10 µL Kinase Reaction consists of 7.5 - 30
0.5 mM EGTA, 1 mM DTT, 0.01% NaN3. After the 1 hour Kinase Reaction incubation, 5 µL of
CDK6/cyclin D1: Adapta™ screening assay was performed by Thermo Fisher Scientific. The 2X CDK6/cyclin D1 / Rb Substrate mixture is prepared in 50 mM HEPES pH 7.5, 0.01% BRIJ-35, 10 mM
MnCl2, 1 mM EGTA, 2 mM DTT, 0.02% NaN3.
All single point assay determinations carried out in duplicate.

MNK1 = MNK1 (Homo sapiens, UniProt Q9BUB5); assay: 33P-ATP radiometric filter binding kinase panel; settings: read-out: % activity remaining
MAPKAP-K2 = MAPKAP-K2 (Homo sapiens, UniProt P49137); assay: 33P-ATP radiometric filter binding kinase panel; settings: read-out: % activity remaining
Excerpt: as §1

[1] = Microsomal stability (Cyprotex); settings: mouse, liver microsomes
PKCa = PKCa (Homo sapiens, UniProt P17252); assay: 33P-ATP radiometric filter binding kinase panel; settings: read-out: % activity remaining
JNK1 = JNK1 (Homo sapiens, UniProt P45983); assay: 33P-ATP radiometric filter binding kinase panel; settings: read-out: % activity remaining
Excerpt: as §1

MDR1 (P-gp) = assay: MDR1-MDCK permeability, bi-directional (Cyprotex)
ZAP70 = ZAP70 (Homo sapiens, UniProt P43403); assay: 33P-ATP radiometric filter binding kinase panel; settings: read-out: % activity remaining
Excerpt: as §1

SmMLCK = SmMLCK (Homo sapiens, UniProt Q15746); assay: 33P-ATP radiometric filter binding kinase panel; format: biochemical
Sequence of SmMLCK (Q15746 whole entry): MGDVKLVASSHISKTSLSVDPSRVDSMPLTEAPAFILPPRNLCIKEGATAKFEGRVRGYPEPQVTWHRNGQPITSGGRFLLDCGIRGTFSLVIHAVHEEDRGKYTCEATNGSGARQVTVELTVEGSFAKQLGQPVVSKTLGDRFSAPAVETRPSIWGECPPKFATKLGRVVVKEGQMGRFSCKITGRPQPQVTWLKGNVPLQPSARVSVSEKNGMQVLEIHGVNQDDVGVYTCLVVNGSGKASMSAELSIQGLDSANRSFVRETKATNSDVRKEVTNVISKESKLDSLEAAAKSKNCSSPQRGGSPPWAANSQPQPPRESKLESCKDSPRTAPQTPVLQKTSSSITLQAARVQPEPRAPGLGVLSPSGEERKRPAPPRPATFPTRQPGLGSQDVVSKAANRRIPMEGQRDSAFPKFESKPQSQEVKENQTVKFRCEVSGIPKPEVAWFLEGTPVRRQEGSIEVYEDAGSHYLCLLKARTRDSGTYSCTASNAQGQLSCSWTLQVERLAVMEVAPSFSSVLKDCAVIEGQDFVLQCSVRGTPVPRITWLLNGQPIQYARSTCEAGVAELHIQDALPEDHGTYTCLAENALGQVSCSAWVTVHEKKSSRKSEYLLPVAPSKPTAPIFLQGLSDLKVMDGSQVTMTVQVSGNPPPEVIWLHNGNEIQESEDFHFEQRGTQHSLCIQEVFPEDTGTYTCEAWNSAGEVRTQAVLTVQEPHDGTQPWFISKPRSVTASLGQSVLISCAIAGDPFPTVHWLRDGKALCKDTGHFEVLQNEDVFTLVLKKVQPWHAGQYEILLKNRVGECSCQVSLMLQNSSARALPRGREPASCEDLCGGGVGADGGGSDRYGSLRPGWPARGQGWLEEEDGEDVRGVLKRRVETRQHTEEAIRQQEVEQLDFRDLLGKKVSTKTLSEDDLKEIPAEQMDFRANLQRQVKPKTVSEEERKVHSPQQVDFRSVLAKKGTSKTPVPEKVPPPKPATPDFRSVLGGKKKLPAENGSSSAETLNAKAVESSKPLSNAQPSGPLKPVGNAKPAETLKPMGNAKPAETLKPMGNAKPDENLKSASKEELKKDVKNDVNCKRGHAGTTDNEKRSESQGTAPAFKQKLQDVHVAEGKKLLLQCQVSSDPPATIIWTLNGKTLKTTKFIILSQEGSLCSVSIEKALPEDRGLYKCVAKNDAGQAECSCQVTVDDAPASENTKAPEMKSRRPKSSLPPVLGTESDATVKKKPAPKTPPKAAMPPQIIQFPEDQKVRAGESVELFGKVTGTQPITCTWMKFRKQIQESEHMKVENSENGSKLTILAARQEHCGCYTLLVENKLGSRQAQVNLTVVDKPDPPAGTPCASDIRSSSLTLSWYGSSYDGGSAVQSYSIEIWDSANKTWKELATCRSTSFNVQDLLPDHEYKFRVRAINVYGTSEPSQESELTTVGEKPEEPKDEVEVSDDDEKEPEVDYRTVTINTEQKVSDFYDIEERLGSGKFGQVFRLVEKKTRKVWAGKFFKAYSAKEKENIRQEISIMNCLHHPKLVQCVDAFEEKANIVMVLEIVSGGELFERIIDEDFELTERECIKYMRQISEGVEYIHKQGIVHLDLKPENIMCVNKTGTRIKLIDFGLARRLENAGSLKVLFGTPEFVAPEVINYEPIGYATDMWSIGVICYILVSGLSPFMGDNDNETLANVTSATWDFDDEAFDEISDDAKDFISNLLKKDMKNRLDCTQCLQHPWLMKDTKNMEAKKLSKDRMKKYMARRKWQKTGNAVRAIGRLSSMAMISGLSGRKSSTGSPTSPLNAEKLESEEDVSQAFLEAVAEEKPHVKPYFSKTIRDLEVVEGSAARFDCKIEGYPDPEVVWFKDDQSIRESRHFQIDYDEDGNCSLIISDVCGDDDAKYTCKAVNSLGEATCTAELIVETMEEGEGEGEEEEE

Sequence of MAPKAP-K2 (P49137 whole entry): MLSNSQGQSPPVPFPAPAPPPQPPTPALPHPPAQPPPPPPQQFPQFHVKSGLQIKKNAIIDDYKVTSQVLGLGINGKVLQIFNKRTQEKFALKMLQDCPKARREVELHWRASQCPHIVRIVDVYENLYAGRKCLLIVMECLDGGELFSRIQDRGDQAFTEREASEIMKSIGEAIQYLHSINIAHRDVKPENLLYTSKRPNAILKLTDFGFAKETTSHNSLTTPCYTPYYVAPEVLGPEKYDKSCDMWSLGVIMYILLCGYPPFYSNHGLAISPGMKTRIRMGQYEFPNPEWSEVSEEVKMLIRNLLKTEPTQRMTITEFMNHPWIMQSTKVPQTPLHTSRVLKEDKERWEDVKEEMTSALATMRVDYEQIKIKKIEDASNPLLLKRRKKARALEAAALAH
Sequence of ROCK 2 (O75116 whole entry): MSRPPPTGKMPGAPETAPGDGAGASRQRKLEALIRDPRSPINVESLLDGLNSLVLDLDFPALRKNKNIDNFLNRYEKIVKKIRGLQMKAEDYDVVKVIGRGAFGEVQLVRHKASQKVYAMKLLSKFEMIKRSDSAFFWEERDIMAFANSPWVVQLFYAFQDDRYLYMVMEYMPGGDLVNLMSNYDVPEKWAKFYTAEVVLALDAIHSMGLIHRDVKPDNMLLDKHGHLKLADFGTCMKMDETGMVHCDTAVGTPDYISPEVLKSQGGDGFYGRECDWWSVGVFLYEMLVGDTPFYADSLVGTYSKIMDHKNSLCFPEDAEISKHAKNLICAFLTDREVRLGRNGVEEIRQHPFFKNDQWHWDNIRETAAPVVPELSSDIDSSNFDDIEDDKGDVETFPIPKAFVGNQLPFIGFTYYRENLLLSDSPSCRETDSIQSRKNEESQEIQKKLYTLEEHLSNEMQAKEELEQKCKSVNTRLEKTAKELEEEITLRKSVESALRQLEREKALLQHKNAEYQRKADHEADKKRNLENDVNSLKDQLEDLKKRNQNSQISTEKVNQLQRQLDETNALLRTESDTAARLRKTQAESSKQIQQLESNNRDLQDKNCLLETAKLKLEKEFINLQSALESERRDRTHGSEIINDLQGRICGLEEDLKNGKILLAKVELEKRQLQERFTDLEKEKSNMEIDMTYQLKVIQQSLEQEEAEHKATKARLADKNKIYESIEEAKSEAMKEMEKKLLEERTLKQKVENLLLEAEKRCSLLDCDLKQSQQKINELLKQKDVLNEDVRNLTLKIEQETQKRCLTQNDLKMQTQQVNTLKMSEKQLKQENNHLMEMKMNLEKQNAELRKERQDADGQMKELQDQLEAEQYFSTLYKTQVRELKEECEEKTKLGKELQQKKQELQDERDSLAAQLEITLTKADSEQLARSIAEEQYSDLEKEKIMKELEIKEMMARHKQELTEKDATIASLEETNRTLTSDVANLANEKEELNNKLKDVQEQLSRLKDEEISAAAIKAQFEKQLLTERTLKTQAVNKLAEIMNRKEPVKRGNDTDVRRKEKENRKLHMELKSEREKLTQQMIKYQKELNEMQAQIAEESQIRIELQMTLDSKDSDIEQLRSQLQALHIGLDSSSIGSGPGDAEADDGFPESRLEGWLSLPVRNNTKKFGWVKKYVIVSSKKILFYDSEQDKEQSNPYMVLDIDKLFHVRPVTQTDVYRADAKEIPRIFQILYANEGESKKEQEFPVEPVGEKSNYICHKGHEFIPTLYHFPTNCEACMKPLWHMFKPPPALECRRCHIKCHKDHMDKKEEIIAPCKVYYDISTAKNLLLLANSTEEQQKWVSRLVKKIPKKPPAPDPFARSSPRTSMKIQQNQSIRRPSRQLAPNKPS
Sequence of JNK1 (P45983 whole entry): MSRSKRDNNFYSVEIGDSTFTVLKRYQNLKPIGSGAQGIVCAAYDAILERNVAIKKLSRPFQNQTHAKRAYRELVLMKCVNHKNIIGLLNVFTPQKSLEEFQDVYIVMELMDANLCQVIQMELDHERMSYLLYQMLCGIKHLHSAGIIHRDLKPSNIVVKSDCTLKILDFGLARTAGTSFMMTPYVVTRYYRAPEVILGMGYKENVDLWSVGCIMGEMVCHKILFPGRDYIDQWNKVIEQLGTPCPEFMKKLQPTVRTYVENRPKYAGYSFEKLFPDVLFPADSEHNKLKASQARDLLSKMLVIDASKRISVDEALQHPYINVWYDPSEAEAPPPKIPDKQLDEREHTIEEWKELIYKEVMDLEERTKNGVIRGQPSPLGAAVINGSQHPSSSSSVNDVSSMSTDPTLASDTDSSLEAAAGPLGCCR
Sequence of CAMKKb (Q96RR4 whole entry, species assumed): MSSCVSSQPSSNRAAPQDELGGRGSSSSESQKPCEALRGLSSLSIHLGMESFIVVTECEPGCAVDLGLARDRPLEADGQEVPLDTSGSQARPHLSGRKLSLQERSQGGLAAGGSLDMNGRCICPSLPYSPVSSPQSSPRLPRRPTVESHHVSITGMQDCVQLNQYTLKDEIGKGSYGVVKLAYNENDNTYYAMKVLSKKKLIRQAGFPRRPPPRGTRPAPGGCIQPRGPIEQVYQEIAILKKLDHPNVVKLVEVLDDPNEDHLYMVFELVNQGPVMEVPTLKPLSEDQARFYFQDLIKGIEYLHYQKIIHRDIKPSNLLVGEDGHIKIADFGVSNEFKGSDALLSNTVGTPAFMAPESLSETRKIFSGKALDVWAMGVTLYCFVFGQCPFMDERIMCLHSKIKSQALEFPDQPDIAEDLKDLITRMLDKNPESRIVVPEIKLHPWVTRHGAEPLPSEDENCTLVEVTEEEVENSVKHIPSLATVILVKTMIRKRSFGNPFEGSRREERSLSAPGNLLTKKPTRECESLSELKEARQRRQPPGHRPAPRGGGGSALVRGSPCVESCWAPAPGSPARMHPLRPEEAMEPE
Sequence of p38g MAPK (P53778 whole entry): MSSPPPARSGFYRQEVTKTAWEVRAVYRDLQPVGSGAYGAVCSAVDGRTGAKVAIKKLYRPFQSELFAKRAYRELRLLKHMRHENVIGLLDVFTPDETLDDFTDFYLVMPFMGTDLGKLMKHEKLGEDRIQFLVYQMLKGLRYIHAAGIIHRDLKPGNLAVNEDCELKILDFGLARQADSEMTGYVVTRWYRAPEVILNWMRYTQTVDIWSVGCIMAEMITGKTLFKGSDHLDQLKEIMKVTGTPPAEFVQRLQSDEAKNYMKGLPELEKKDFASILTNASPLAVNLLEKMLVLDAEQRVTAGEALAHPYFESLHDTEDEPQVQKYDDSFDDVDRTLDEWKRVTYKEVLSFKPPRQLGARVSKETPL

Compound	remaining activity at 1 µM (MKK6) [%]	remaining activity at 1 µM (TLK1) [%]	remaining activity at 1 µM (PRK2) [%]	remaining activity at 1 µM (PIM2) [%]	remaining activity at 1 µM (CAMKKb) [%]	remaining activity at 1 µM (MNK2) [%]	remaining activity at 1 µM (TESK1) [%]	remaining activity at 1 µM (HIPK2) [%]	remaining activity at 1 µM (DYRK1A) [%]	remaining activity at 1 µM (MST2) [%]	remaining activity at 1 µM (CK2) [%]	remaining activity at 1 µM (ROCK 2) [%]	remaining activity at 1 µM (MARK4) [%]	remaining activity at 1 µM (MLK3) [%]	remaining activity at 1 µM (SYK) [%]	remaining activity at 1 µM (HIPK1) [%]	remaining activity at 1 µM (SIK3) [%]	remaining activity at 1 µM (TBK1) [%]	remaining activity at 1 µM (p38g MAPK) [%]	remaining activity at 1 µM (ERK8) [%]	also measured
CC(C)N1CCN(c2ccc(Nc3nc(OCC4CC4)c4cc[nH]c4n3)cc2)CC1 [Compound 23]	119	120	43	103	36	83	68	22	53	45	50	25	26	92	9	63	80	46	97	52	inhibition at 1 µM (CDK4/cyclin D1): 39%; remaining activity at 1 µM (MNK1): 106%; remaining activity at 1 µM (MAPKAP-K2): 104%; half-life at 1 µM [1]: 22.8 min; remaining activity at 1 µM (PKCa): 108%; remaining activity at 1 µM (JNK1): 23%; efflux ratio at 60 min, 10 µM (MDR1 (P-gp); dog): 1.5; Papp at 60 min, 10 µM (MDR1 (P-gp); dog (canine)): 4.5 ×10⁻⁶ cm/s; remaining activity at 1 µM (ZAP70): 78%; remaining activity at 1 µM (SmMLCK): 37%
CC(C)N1CCN(c2ccc(Nc3nc(OCC4CCOC(C)(C)C4)c4nc[nH]c4n3)cc2)CC1 (stereo not drawn) [Compound 20]	106	83	57	107	70	80	45	50	92	71	116	36	59	33	59	95	64	27	97	32	inhibition at 1 µM (CDK4/cyclin D1): 63%; remaining activity at 1 µM (MNK1): 101%; remaining activity at 1 µM (MAPKAP-K2): 102%; half-life at 1 µM [1]: 41.8 min; remaining activity at 1 µM (PKCa): 109%; remaining activity at 1 µM (JNK1): 38%; Papp at 60 min, 10 µM (MDR1 (P-gp); dog): 1.79 ×10⁻⁶ cm/s; efflux ratio at 60 min, 10 µM (MDR1 (P-gp); dog): 19.7; remaining activity at 1 µM (ZAP70): 95%; remaining activity at 1 µM (SmMLCK): 91%
